Reference: patent US4997850A, “Treating agent for osteroarthritis” (Kureha Kagaku Kogyo Kabushiki Kaisha, priority 1989, dated 1991)
Where a name gives a salt, the structure may show the parent alone.

B1: IL-1α: interleukin 1 alpha, added to cultured cartilage matrix to increase proteoglycan release (protein, UniProt P01583 113-271, looked up)
Interleukin-1 alpha: SAPFSFLSNVKYNFMRIIKYEFILNDALNQSIIRANDQYLTAAALHNLDEAVKFDMGAYKSSKDDAKITVILRISKTQLYVTAQDEDQPVLLKEMPEIPKTITGSETNLLFFWETHGTKNYFTSVAHPNLFIATKQDYWVCLAGGPPSITDFQILENQA

What was measured:
[1] = test system: IL-1α production in human synovial cells; experiment: Inhibition of IL-1α production in human synovial cells; assay type: cell-based; conditions: TPA and A 23187 stimulation, 40 hours
Protocol: (§1) Human synovial membrane obtained at an operation was treated with collagenase to obtain synovial cells, which were subcultured several times and inoculated on a 12-well culture dish. On reaching to confluence, the cells were provided to the test described below. The synovial cells produce IL-1 but release only a little amount and accordingly are appropriate cells to study an inhibition or an acceleration of IL-1 intracellular production.
(§2) Each DMSO (dimethylsulfoxide) solution containing one of ACP, PAL and PAC separately in a concentration of 400 times that of the final test and DMSO solution not containing any of the compound as a control, were diluted to 40 times in its volume with a medium containing fetal bovine serum (hereinafter referred to as "FBS") [Ham Medium]. 100 μl of the diluted solution was added to each well and further, 800 μl of the medium [Ham] was added to each well. […] The concentration of TPA and the ionophore in the medium were adjusted so that their final concentration in the well became 0.1 μg/ml and 0.2 μg/ml, respectively and a production of IL-1 was stimulated. Final volume of the liquid (medium) per well was 1 ml/well. After 40 hours of culture, liquid portion was removed from each well and 1 ml of a Ham medium was added to the remaining cells in each well. Freeze-thawing was repeated on the medium containing the cells several times to destroy all the cells in the medium and supernatants containing intracellular substances were obtained by centrifugation. IL-1α and IL-1β in the supernatant were determined by ELISA method using a prescribed enzyme-antibody-complex (manufactured by OHTSUKA SEIYAKU, Co., Ltd.) as intracellular IL-1s. [Refer to ENSHO, vol.

[2] = Acute toxicity (LD50) of PAL in female Jcl:ICR mice; conditions: mouse, in vivo
Protocol: For oral administration, a suspension of PAL dispersed in an aqueous solution of 0.2% CMC was prepared (a part of PAL was dissolved in the solution) and administered to the animals via a stomach sonde. For intraperitoneal administration, a suspension of PAL dispersed in an aqueous physiological saline solution was prepared (a part of PAL was dissolved in the solution) and injected to the animals with a syringe.

leukocyte migration = conditions: cited from earlier work
granuloma proliferation = conditions: cited from earlier work
adjuvant arthritis = conditions: in vivo; cited from earlier work
[3] = test system: proteoglycan (PG) release under IL-1α; experiment: Proteoglycan (PG) release from prelabelled cultured cartilage matrix with addition of IL-1α; assay type: cell-based; conditions: for inhibition of PG release under IL-1α: 20 units of IL-1α
Protocol: Further, to a cultured cartilage matrix, in which PG is prelabelled in advance with 1 μCi of Na2^35 SO4, 20 units of IL-1α was added to each group including control group and 10 μM of PAL, 100 μM of PAL or 10 μM of ACP was added to each test group and studied the effect of each compound to the PG release from the cells.

[4] = test system: proteoglycan (PG) in cultured cartilage cells; experiment: Synthesis, release and remaining amount of proteoglycan (PG) in cultured cartilage cells; assay type: cell-based, rat; conditions: for effect on PG synthesis / inhibition of PG release: PAL 1 to 10 μM, PAC 10 to 100 μM; for effect on PG synthesis: 24 hours; for inhibition of PG release: control release 100%; for remaining amount of PG in the matrix: PAL between 1 and 3.3 μM, PAC between 10 and 100 μM
Protocol: Costal cartilage was aseptically taken out from male SD rats of 4 weeks age, enzymatically treated to separate it into single cells, then inoculated into a 12-well culture dish and cultured under an atmosphere containing 5% CO2 at 37° C. After the chondrocytes had been grown to confluence, 1 to 10 μM of PAL or 10 to 100 μM of PAC was added and three hours later, 2 μCi of Na2^35 SO4 was further added to each well. Twenty four hours later, the synthesis amount in, release amount from and remaining amount of PG in the matrix were determined using amount of ^35 S as an index. […] In the Figures, the PG release in the control was defined as 100%. […] In FIGS. 4(a), 4(b) and 4(c), the released amount of PG means the amount representing the PG degraded in and released from cartilage matrixes, which was calculated on a basis of ^35 S in the culture medium. The remaining amount of PG means the PG not degraded in the matrixes and was also calculated in the same way as above. Sum of the released and the remaining amounts of PG is thought to be a synthesized PG.

[5] = test system: IL-1 release from human monocyte; experiment: Inhibition of IL-1 (IL-1α and IL-1β) release from human monocyte; assay type: cell-based; conditions: LPS 10 μg/ml, 42 hours; for minimal effective concentration: Homo sapiens, Monocyte, read-out: concentration at which the release of IL-1 is significantly inhibited
Protocol: Monocyte were isolated from human venous blood by density-gradient centrifugation using a Ficoll-paque solution and obtained the cells having a purity of not less than 95% by purifying with a monocyte-separating plate. After dispersing the cells in a medium, RPMI 1640, containing 10% of FBS, the monocyte were inoculated in a culture dish in a ratio of 10^6 cells/3 ml/well and cultured under an atmosphere containing 5% CO2 at 37° C. for 30 minutes. Then, each 15 μl of DMSO solution of one of ACP, PAL and PAC was added to each well (a final DMSO concentration of 0.5%) and 30 minutes later a lipopolysaccharide (hereinafter referred to as "LPS"), a substance to stimulate IL-1 production, was added at a final LPS concentration of 10 μg/ml and they were cultured for 42 hours. Then, the reacted culture medium was recovered and accompanied cells with the medium were separated by centrifugation and obtained the supernatant free of cell. IL-1α and IL-1β released from the cells were measured by ELISA method in the same manner as in item (i) above.

[6] = in vivo; cited from earlier work
[7] = test system: IL-1 release from cultured cartilage cells; experiment: Inhibition of IL-1 release from cultured cartilage cells; assay type: cell-based, rabbit; conditions: 3.3 μM; TPA and A 23187 stimulation, 24 hours
Protocol: Cartilages were aseptically taken out from knee and shoulder joints of young rabbit, treated with a Ham medium containing 0.2% collagenase and separated each other into single cells. After washed two times with a Ham medium containing 10% FBS, the cells were dispersed into the Ham medium containing 10% FBS at a concentration of 10^5 cells/ml. […] After 24 hours of cultivation, IL-1 released into each of the supernatants was measured by a bioassay applying an incorporated amount of ^3 H-thymidine (^3 H-TdR) as an index. […] In the Figure, "Intact" means a case TPA and the ionophore were not added and accordingly no stimulation of IL-1 release was given.

[8] = test system: IL-1β production in human synovial cells; experiment: Inhibition of IL-1β production in human synovial cells; assay type: cell-based; conditions: TPA and A 23187 stimulation, 40 hours
Protocol: as §1, §2

[9] = Acute toxicity (LD50) of PAC in male mice; assay type: in vivo; conditions: intraperitoneal
[10] = Acute toxicity (LD50) of further compounds, determined in the same manner as ACP; assay type: in vivo; conditions: same manner as ACP (oral or subcutaneous, mice and rats)
Protocol: (§3) For oral administration, a suspension of ACP dispersed in an aqueous solution of 0.5% methylcellulose and 0.4% Tween 80 (nonionic surfactant, manufactured by TOKYO KASEI, Co., Ltd.) was prepared and administered to the animals via a stomach sonde. For subcutaneous administration, a suspension of ACP dispersed in an aqueous physiological saline solution containing 0.5% of carboxymethyl cellulose sodium (hereinafter referred to as "CMC") was prepared and injected to the animals with a syringe.
Further, the acute toxicities (LD50) of […]

[11] = Acute toxicity (LD50) of ACP in mice; assay type: in vivo; conditions: for LD50 at 168 h: in vivo, male; for LD50: female, 10080 min
Protocol: as §3

[12] = Acute toxicity (LD50) of ACP in rats; assay type: in vivo; conditions: for LD50 at 168 h: in vivo, male; for LD50: female, 10080 min
Protocol: as §3

[13] = test system: proteoglycan (PG) release under IL-1α; experiment: Proteoglycan (PG) release from prelabelled cultured cartilage matrix with addition of IL-1α; assay type: cell-based; conditions: 20 units of IL-1α, compared to control without IL-1; prelabelled 35S as 100%

Molecule | inhibiting activity of IL-1α production ([1]; 33 μM) | suppressing activity of leukocyte migration (leukocyte migration) | suppressing activity of granuloma proliferation (granuloma proliferation) | suppressing activity of adjuvant arthritis (adjuvant arthritis) | effect on PG synthesis [4] | inhibition of PG release [4] | remaining amount of PG in the matrix [4] | minimal effective concentration [5] [µM] | toxicity to mammals including human [6] | inhibition of IL-1 release from cartilage cells [7] | inhibiting activity of IL-1β production ([8]; 33 μM) | inhibition of PG release under IL-1α ([3]; 10 μM) | other results
O=Cc1ccc(O)c(O)c1 [PAL, 3,4-dihydroxybenzaldehyde] | strong inhibiting activity | suppressing activity | suppressing activity | suppressing activity | no effect | exhibited inhibiting activities on the PG release | increased in proportion to the adding amount | 0.33 | very low toxic | inhibit the release of IL-1 | strong inhibiting activity | – | LD50 at 168 h ([2]; ip, intraperitoneal): 404 mg/kg; LD50 at 168 h ([2]; oral): 1500 mg/kg; inhibition of PG release under IL-1α ([3]; PAL 10 μM and 100 μM): inhibited the release amount proportionally to the amount added
O=C(O)c1ccc(O)c(O)c1 [PAC, 3,4-dihydroxybenzoic acid] | inhibiting activity of IL-1α only | – | – | – | no effect | exhibited inhibiting activities on the PG release | increased in proportion to the adding amount | – | – | inhibit the release of IL-1 | inhibiting activity of IL-1α only | – | LD50 at 192 h ([9]; mouse, in vivo, ip, observed 8 days): ≥ 400 mg/kg; inhibiting activity on PG release (further compounds) ([3]; concentration not given): same effects
O=C(Oc1ccc(C(OC(=O)c2ccccc2)OC(=O)c2ccccc2)cc1OC(=O)c1ccccc1)c1ccccc1 [3,4-dibenzoyloxybenzylidene dibenzoate] | – | – | – | – | – | – | – | – | – | – | – | inhibited the release amount of PG | inhibition of IL-1 release ([5]; 3.3 μM): significantly inhibit; acute toxicities (LD50), compared with ACP [10]: approximately same values
O=C(O)c1ccc(O)c(O)c1 [sodium salt of PAC] | – | – | – | – | – | – | – | – | – | – | – | – | LD50 value, compared with PAC ([9]; level relative to PAC (not less than 400 mg/kg)): same level of LD50 value
CC(=O)Oc1ccc(C(OC(C)=O)OC(C)=O)cc1OC(C)=O [ACP, 3,4-diacetoxybenzylidene diacetate] | – | suppressing activity | suppressing activity | suppressing activity | – | – | – | 0.67 | very low toxic | inhibit the release of IL-1 | – | inhibited the release amount | LD50 at 168 h ([11]; sc, subcutaneous, Jcl:ICR mouse): > 4000 mg/kg; LD50 at 168 h ([11]; oral, CD-1 mouse): > 5000 mg/kg; LD50 ([11]; oral, CD-1 mouse): > 5000 mg/kg; LD50 ([11]; subcutaneous, Jcl:ICR mouse): > 4000 mg/kg; inhibiting activity of IL-1α production ([1]; 10 μM): strong inhibiting activity; effect on PG synthesis, release and remaining amount (ACP) ([4]; compared with PAL and PAC, concentration not given): effect having similar tendency; LD50 at 168 h ([12]; sc, subcutaneous, Jcl:Wistar rat): > 4000 mg/kg; LD50 at 168 h ([12]; oral, Sprague-Dawley rat): > 5000 mg/kg; LD50 ([12]; oral, Sprague-Dawley rat): > 5000 mg/kg; LD50 ([12]; subcutaneous, Jcl:Wistar rat): > 4000 mg/kg; inhibiting activity of IL-1β production ([8]; 10 μM): strong inhibiting activity
B1 | – | – | – | – | – | – | – | – | – | – | – | – | increase of PG release by IL-1α [13]: about 20%
